The text below walks through data of ChEMBL document CHEMBL5465560, “Selectivity Literature for EUbOPEN Chemogenomic Library” (2024).

Test [1] concerns the target Tyrosine-protein kinase JAK1 (Homo sapiens, UniProt P23458). Particulars: at 10 µM.
For test [2], the target named is LIM domain kinase 1 (Homo sapiens) (UniProt P53667). The test is described as follows: Selectivity interaction (Ambit KINOMEscan and KiNATiv profiling in Jurkat cells) EUB0000090b LIMK1. Particulars: at 1 µM. Format: cell-based.
The target in test [3] is Casein kinase I isoform gamma-3 (Homo sapiens) (UniProt Q9Y6M4). Particulars: at 10 µM.
Test [4] addresses T1, Receptor-interacting serine/threonine-protein kinase 4 (Homo sapiens) (UniProt P57078).
T1 sequence (whole entry): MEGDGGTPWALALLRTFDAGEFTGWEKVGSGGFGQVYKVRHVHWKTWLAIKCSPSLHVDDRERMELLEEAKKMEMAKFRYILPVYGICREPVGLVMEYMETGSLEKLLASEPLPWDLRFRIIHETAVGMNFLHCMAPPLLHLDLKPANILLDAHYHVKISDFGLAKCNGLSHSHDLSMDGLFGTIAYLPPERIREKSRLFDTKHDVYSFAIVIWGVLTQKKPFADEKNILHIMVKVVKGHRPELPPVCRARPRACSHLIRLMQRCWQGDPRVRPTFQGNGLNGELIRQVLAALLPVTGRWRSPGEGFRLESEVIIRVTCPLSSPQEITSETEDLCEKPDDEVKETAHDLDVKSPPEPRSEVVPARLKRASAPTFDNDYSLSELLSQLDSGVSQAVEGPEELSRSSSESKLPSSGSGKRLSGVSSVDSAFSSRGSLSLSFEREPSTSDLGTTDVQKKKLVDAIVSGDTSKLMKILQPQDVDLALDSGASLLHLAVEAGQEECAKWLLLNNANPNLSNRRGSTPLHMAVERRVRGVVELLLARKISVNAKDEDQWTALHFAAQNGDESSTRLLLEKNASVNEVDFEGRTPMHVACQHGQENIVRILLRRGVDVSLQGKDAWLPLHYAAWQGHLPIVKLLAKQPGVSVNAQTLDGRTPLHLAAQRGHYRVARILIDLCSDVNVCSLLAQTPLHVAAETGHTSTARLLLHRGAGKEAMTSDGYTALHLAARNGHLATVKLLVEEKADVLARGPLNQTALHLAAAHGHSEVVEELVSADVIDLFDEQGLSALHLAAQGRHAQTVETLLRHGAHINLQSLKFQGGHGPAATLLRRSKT
The experiment in a line: Selectivity interaction (KinomeScan (DiscoverX)) EUB0001079a RIPK4. To be noted: at 1 µM.

The target of test [5] is DNA (cytosine-5)-methyltransferase 3A (Homo sapiens) (UniProt Q9Y6K1). The test is described as follows: Selectivity interaction (Transferase panel (protein, RNA, and DNA methyltransferases. and EP300 (acetyltransferase))) EUB0000270b DNMT3A.
For test [6], the target named is T2, Serine/threonine-protein kinase TBK1 (Homo sapiens) (UniProt Q9UHD2).
T2 sequence (whole entry): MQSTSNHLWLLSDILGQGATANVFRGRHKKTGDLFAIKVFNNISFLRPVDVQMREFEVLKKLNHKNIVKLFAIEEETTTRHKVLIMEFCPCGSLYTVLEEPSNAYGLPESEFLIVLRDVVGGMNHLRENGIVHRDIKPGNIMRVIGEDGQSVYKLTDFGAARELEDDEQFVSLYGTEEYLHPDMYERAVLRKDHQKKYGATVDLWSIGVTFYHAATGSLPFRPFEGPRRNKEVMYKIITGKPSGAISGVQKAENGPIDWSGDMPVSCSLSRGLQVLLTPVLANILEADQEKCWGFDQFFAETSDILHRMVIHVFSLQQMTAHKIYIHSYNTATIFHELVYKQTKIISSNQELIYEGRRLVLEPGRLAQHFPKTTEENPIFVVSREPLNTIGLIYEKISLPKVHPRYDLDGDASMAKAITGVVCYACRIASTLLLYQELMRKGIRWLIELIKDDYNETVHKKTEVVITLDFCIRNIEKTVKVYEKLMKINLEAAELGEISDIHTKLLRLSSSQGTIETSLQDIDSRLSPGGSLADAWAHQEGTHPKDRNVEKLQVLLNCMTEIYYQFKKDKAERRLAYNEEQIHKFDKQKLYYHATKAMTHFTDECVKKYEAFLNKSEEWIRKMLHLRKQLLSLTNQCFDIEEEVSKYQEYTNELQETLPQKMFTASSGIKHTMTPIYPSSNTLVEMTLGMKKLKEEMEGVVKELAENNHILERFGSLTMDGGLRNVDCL
The test is described as follows: Selectivity interaction (KinomeScan (DiscoverX)) EUB0000045b TBK1.

The target in test [7] is Mitogen-activated protein kinase kinase kinase kinase 4 (Homo sapiens, UniProt O95819). The test is described as follows: Selectivity interaction (KinomeScan (DiscoverX)) EUB0000607a MAP4K4. To be noted: at 10 µM.
Test [8] deals with Tyrosine-protein kinase ABL2 (Homo sapiens, UniProt P42684). The test is described as follows: Selectivity interaction (Kinase panel (Invitrogen)) EUB0000639a ABL2. Particulars: at 200 nM.
Test [9] concerns the target Platelet-derived growth factor receptor alpha (Homo sapiens, UniProt P16234). The experiment in a line: Selectivity interaction (Kinase panel (Invitrogen)) EUB0000639a PDGFRA. Particulars: at 200 nM.
The target of test [10] is Serine/threonine-protein kinase NIM1 (Homo sapiens, UniProt Q8IY84).
In test [11] the target is Protein kinase C theta type (Homo sapiens, UniProt Q04759). The test is described as follows: Selectivity interaction (KinomeScan (DiscoverX)) EUB0000229b PRKCQ. To be noted: at 10 µM.
The target in test [12] is STE20-like serine/threonine-protein kinase (Homo sapiens, UniProt Q9H2G2). The test is described as follows: Selectivity interaction (Kinase panel (DSF assay)) EUB0001559a SLK.
Test [13] has as its target Serine/threonine-protein kinase 25 (Homo sapiens) (UniProt O00506). The test is described as follows: Selectivity interaction (ActivX KiNativ screen (ex vivo kinase selectivity in human PBMCs)) EUB0001619a STK25. It is filed as cell-based. Particulars: PBMC, at 1 µM.

Chain of DNA (cytosine-5)-methyltransferase 3A (Homo sapiens) (Q9Y6K1 whole entry, looked up): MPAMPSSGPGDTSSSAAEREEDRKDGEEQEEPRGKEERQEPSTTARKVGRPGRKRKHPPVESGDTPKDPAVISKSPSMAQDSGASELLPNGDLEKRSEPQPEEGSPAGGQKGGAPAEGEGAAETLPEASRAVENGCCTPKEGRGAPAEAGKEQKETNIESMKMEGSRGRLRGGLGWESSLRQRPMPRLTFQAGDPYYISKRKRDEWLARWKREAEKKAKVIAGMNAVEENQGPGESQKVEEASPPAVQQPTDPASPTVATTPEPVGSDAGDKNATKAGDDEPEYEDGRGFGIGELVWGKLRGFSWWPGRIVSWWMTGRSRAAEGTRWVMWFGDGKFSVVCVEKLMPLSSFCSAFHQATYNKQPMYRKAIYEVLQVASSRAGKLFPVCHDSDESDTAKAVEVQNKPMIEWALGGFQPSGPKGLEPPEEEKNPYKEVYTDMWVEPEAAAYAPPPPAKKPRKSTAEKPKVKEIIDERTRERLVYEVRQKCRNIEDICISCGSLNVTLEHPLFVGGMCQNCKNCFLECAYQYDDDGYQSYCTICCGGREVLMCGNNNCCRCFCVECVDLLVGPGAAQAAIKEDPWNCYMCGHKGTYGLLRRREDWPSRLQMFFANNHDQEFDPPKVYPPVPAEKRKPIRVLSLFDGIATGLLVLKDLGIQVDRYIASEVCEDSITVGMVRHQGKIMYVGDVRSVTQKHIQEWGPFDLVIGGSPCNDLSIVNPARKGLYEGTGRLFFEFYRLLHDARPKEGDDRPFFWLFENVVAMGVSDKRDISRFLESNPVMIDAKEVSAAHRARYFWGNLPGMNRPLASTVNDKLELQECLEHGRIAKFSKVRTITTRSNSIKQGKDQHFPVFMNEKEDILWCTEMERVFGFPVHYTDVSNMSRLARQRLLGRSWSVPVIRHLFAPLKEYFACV
Chain of STE20-like serine/threonine-protein kinase (Q9H2G2 whole entry, looked up): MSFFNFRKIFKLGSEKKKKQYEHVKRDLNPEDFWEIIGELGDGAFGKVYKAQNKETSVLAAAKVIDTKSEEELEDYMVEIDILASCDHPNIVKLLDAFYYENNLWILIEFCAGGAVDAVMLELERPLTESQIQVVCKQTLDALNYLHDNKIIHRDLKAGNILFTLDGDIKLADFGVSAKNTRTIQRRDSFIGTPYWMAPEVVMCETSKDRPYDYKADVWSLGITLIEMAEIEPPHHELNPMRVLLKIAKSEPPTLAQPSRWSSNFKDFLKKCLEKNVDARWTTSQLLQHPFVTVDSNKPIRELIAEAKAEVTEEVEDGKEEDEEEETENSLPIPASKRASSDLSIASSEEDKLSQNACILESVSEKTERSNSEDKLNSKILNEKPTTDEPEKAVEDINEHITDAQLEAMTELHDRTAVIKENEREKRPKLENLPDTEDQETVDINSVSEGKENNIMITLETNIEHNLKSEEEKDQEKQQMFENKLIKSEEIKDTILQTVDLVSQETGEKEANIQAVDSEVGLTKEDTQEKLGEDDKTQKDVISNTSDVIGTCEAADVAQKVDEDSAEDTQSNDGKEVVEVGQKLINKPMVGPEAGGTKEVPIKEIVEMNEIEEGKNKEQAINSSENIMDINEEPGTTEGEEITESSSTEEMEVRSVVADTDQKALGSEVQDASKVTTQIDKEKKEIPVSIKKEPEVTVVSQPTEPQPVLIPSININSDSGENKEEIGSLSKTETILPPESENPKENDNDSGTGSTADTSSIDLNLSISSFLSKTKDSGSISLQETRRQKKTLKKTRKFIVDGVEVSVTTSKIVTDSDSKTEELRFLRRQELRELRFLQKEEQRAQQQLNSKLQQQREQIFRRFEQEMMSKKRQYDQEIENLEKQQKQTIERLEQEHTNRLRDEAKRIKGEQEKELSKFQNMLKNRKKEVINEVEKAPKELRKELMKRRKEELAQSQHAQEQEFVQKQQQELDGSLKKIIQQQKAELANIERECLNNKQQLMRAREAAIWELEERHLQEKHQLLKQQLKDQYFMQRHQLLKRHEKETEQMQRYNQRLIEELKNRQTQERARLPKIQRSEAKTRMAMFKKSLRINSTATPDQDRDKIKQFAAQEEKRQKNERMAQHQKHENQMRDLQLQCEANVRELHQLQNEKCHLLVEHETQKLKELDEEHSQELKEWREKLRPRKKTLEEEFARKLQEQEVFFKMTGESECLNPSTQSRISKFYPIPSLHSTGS
Chain of Platelet-derived growth factor receptor alpha (P16234 whole entry): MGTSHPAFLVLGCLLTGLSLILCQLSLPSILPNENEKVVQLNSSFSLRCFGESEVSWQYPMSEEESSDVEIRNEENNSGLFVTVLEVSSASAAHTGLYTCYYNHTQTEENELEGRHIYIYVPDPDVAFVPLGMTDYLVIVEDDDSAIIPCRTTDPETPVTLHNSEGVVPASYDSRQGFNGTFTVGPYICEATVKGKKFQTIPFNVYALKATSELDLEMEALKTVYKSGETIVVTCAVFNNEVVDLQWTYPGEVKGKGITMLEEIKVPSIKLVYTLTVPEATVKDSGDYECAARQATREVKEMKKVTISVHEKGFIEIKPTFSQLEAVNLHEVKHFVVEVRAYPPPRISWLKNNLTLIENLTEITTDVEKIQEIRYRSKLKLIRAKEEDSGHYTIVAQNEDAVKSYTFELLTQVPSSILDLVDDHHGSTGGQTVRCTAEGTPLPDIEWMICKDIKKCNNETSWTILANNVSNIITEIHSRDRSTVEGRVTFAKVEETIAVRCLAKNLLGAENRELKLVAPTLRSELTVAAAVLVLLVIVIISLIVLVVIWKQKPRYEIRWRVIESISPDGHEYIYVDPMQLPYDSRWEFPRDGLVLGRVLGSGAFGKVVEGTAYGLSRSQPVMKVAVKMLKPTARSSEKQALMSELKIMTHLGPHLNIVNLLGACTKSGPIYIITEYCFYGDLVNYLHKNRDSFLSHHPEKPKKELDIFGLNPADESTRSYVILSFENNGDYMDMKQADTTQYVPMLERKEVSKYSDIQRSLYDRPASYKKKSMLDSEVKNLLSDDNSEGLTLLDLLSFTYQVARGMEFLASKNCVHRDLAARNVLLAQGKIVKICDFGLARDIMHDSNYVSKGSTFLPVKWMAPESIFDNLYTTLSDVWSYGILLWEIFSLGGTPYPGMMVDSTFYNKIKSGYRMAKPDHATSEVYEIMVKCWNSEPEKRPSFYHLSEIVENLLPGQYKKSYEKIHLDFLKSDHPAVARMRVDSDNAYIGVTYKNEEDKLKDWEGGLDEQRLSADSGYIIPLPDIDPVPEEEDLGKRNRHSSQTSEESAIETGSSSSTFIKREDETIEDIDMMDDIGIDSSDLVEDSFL
Chain of Tyrosine-protein kinase JAK1 (P23458 whole entry, the tested form may be a part): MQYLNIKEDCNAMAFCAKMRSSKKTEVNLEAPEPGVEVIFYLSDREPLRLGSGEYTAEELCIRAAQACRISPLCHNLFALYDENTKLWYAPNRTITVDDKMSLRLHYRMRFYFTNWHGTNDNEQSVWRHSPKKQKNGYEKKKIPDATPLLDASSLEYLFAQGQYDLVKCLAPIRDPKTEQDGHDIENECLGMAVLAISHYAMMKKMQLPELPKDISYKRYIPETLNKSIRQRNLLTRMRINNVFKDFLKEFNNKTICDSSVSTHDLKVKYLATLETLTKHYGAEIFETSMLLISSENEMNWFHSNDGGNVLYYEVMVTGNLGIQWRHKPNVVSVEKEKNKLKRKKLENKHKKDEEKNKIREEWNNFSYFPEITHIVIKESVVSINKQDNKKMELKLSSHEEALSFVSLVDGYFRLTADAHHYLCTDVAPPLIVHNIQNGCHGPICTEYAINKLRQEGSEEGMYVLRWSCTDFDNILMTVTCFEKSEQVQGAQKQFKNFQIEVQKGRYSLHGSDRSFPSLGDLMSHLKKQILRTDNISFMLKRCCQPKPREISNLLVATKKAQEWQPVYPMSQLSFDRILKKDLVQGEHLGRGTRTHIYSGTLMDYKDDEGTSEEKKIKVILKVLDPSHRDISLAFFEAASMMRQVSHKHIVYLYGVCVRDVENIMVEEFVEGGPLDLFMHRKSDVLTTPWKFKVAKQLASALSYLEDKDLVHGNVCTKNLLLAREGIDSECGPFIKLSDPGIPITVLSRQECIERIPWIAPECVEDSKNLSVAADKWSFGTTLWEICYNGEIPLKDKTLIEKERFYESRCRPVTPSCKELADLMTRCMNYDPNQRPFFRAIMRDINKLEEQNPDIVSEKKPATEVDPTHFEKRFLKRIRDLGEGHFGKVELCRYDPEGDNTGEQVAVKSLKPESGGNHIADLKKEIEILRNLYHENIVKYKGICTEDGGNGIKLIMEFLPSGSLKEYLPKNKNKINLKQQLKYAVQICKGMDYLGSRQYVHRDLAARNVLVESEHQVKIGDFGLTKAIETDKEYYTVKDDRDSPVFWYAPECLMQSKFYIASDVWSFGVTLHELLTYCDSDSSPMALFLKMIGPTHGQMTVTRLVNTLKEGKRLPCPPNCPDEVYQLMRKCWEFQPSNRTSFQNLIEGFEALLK
Chain of Serine/threonine-protein kinase 25 (Homo sapiens) (O00506 whole entry, looked up): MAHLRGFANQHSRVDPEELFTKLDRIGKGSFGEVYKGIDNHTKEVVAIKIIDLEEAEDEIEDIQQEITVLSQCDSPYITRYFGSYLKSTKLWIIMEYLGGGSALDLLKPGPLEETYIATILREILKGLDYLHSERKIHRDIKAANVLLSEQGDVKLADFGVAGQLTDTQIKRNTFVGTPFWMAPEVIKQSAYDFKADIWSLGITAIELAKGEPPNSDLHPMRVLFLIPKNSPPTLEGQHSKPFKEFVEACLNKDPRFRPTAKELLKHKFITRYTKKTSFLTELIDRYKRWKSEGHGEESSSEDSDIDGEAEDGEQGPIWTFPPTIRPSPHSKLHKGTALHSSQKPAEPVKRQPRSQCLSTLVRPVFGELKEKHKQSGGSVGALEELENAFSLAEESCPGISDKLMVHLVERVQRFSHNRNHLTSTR

The compound `Cc1cc([C@@H](C)Nc2ccccc2C(=O)O)c2nc(N3CCOCC3)cc(=O)n2c1` [AZD-6482] had a % of control in test [1] of 100%.
On to `CN(C)C/C=C/C(=O)Nc1ccc(C(=O)N2CCCC(Nc3ncc(Cl)c(-c4c[nH]c5ccccc45)n3)C2)cc1` (stereo not given), for which the % of control in test [2] was determined as 100%.
In the case of `CCN(CC)CCCCNc1ncc2cc(-c3cc(OC)cc(OC)c3)c(NC(=O)NC(C)(C)C)nc2n1`, the % of control in test [3] was determined as 100%.
`Nc1cnc(N2CCc3cc(S(=O)(=O)Nc4c(F)cc(Cl)cc4F)cc(N4CCCC4=O)c32)nc1` [TP-020n] gave a % of control in [4] of 76%.
With `Cc1cc(CN)cc(C)c1-c1ncn(C)c1-c1cncn1C`, the % activity was > 90% in test [5] (at 1 µM) and > 80% in test [5] (at 10 µM).
Turning to `C=CC(=O)Nc1cc(-n2c(=O)ccc3cnc4ccc(-c5ccc(NS(C)(=O)=O)cc5)cc4c32)ccc1C`, the % of control is 100% in test [6] (at 1 µM) and 77% in [6] (at 10 µM).
Take `CNC(=O)Nc1ccc(-c2nc(N3CC4CCC(C3)O4)c3cnn(C4CCC5(CC4)OCCO5)c3n2)cc1`: the % of control in test [7] stood at 85%.
Take `CC[C@@H]1[C@H](F)C(=O)N[C@@H]1COc1nccc2cc(C(N)=O)c(OC)cc12` [ZIMLOVISERTIB]: the % of inhibition in test [8] is -0.467%; in [9], 1.87%.
For the compound `CCc1cccc(CC)c1NC(=O)c1nn(C)c2c1CCc1cnc(Nc3ccc(C(=O)NC4CCN(C)CC4)cc3OC(F)(F)F)nc1-2`, in [10], the IC50 is > 10 µM.
The compound `COc1cc(N(C)c2ccnc3ccc(C(F)(F)F)cc23)cc(OC)c1OC` registered a % binding in test [11] of 66%.
Take `CN(C(=O)c1cnn2cccnc12)c1cc2c(cc1N1CCOCC1)C(=O)N(C[C@@H](F)C(C)(C)O)C2`: the dTM in test [12] was 1 K.
As to `N#Cc1cccc(-c2c[nH]c3ncnc(N4CCOCC4)c23)c1`, the % of inhibition in test [13] is 61%.
